Key:
E. coli enolase [1] = target: T1, E. coli enolase (Escherichia coli, UniProt P0A6P9); assay: X-ray crystal structure, […] Å; type: binding
Target sequence in this assay (P0A6P9 whole entry): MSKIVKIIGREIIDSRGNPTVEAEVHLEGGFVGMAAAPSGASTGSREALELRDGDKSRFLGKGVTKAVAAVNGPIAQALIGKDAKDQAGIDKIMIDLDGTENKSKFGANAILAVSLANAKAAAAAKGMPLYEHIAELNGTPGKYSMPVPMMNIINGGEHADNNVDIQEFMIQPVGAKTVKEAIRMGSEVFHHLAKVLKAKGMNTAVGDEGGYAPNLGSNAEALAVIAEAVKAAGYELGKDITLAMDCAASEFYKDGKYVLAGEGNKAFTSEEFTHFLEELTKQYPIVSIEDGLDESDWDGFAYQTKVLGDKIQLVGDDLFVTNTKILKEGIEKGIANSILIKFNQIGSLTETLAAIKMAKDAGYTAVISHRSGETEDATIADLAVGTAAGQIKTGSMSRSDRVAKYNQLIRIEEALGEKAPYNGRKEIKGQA

E. coli enolase [2] = target: T1, E. coli enolase; assay: enolase assay, % inhibition at […]; type: biochemical; conditions: read-out: % inhibition at 20 μM
Target sequence in this assay (P0A6P9 2-432): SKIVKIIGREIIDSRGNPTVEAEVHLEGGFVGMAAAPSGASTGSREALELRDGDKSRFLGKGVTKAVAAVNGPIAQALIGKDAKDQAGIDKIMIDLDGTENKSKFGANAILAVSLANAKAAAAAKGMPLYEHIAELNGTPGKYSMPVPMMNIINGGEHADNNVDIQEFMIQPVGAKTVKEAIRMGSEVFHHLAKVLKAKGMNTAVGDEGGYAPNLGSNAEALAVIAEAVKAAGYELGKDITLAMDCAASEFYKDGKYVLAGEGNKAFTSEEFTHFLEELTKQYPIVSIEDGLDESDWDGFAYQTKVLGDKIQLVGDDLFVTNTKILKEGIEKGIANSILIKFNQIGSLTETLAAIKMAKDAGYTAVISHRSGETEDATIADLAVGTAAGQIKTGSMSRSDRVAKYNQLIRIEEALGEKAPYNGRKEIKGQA

SMILES | X-ray crystal structure, 1.8 Å (E. coli enolase [1]) | inhibition at 20 µM (E. coli enolase [2])
O=C(O)C(CO)OP(=O)(O)O (centres unmarked) [2-PGA] | we observe a fully occupied active site with 2-PGA and two Mg-ions bound (PDB 6BFy) | –
NCCOCCOCCNC(=O)Cc1ccc(Nc2nc(NCc3ccc(F)cc3)nc(NCC3CCCCC3)n2)cc1 [compound 41, ENOblock] | – | 41%

From article PMC6511404 (Biochemistry, 2019)
